Molecules are shown by their SMILES. ≈ marks a conversion by molar mass, not a printed value. Like-named read-outs stand apart in the source and are kept apart here.

In data set [1] the test system is PANC-1 human pancreatic tumor xenografts. Put plainly: PANC-1 xenograft model. The class given is in vivo, athymic nude mice. The following applies: PANC-1, 28 mg/kg once every third day for three treatments. As to the method:
The anti-tumor efficacy studies of LBI-1103 in the MDA-MB-468 xenograft model as compared to Taxotere® and in the PANC-1 xenograft model as compared to Taxotere® and Gemcytabine were completed recently. The controls and LBI-1103 were injected intravenously once every other day for three treatments except for PANC-1 xenograft animals, where they were treated with Gemcitabine once every third day for three treatments.
In the PANC-1 xenograft models treated with LBI-1103, Taxotere® and Gemcitabine, a significant reduction in tumor weight was observed after the first day of dosing and this trend continued till the end of the study (FIG. 19).

The conditions of data set [2]: cited from earlier work.
For data set [3] the following is noted: after irinotecan; cited from earlier work.
For another data set, the system named is human plasma proteins. Particulars: cited from earlier work.
The conditions of data set [4]: in blood; cited from earlier work.
For data set [5], the system named is topoisomerase I purified from human and rodent tumor cell lines. Particulars: more potent than irinotecan; cited from earlier work.
For data set [6] the following is noted: cited from earlier work; for solubility in the infusion solution: Jevtana infusion solution.

Consider `Nc1ccn([C@@H]2O[C@H](CO)[C@@H](O)C2(F)F)c(=O)n1` [Gemcytabine, Gemcitabine], for which, in data set [1], the “tumor regression, mean tumor weight on last day of study compared to Day 1” value turned out to be 73%. With `C/C(=C\c1csc(C)n1)[C@@H]1C[C@@H]2O[C@]2(C)CCC[C@H](C)[C@H](O)[C@@H](C)C(=O)C(C)(C)[C@@H](O)CC(=O)N1` [Ixabepilone], in data set [2], the solubility in water result is reported as “about 3.5 mg/L”. Consider `CCc1c2c(nc3ccc(O[C@@H]4O[C@H](C(=O)O)[C@@H](O)[C@H](O)[C@H]4O)cc13)-c1cc3c(c(=O)n1C2)COC(=O)[C@]3(O)CC` [SN-38 glucuronide], for which the urinary excretion in data set [3] was 3%. As for `CCc1c2c(nc3ccc(O)cc13)-c1cc3c(c(=O)n1C2)COC(=O)[C@]3(O)CC` [SN-38], the urinary excretion in data set [3] is recorded as below 1%. Besides, the “plasma protein binding (bound)” value in the data set on human plasma proteins (SN-38: human plasma proteins, mainly albumin) was “approximately 95%”. The “binding to plasma proteins” value in the data set with human plasma proteins (adults and pediatric patients, independent of serum albumin levels) is recorded as 94-96%. In data set [4], the “bound, mainly to albumin and lymphocytes, also erythrocytes and neutrophils” value is “at least 99%”. Besides, in data set [5], the “potency as inhibitor of topoisomerase I relative to irinotecan” value is “approximately 1000 times”. As to `CO[C@H]1C(=O)[C@]2(C)[C@@H](OC)C[C@H]3OC[C@@]3(OC(C)=O)[C@H]2[C@H](OC(=O)c2ccccc2)[C@]2(O)C[C@H](OC(=O)[C@H](O)[C@@H](NC(=O)OC(C)(C)C)c3ccccc3)C(C)=C1C2(C)C` [cabazitaxel], the solubility in water result in data set [2] is given as “about 8 mg/L”. Further, the “solubility in the infusion solution” value is reported as 0.08 mg/mL (≈ 95.7 µM) in data set [6] (5° C.) and 0.06 mg/mL (≈ 71.8 µM) in data set [6] (25° C.). Moreover, in data set [6] (Jevtana premix solution (cabazitaxel concentration 10 mg/mL)), the “solubility in the premix” value is recorded as 3.44 mg/mL (≈ 4120 µM). In the case of `CC(=O)O[C@@]12CO[C@@H]1C[C@H](O)[C@@]1(C)C(=O)[C@H](O)C3=C(C)[C@@H](OC(=O)[C@H](O)[C@@H](NC(=O)OC(C)(C)C)c4ccccc4)C[C@@](O)([C@@H](OC(=O)c4ccccc4)[C@H]21)C3(C)C` [docetaxel], the solubility in water entry in data set [2] was “about 14 mg/L”. For `CCc1c2c(nc3ccc(OC(=O)N4CCC(N5CCCCC5)CC4)cc13)-c1cc3c(c(=O)n1C2)COC(=O)[C@]3(O)CC` [irinotecan], the “bound to and/or localized in erythrocytes” value in data set [4] is reported as 80%. `CC(=O)O[C@H]1C(=O)[C@@]2(C)[C@H]([C@H](OC(=O)c3ccccc3)[C@]3(O)C[C@H](OC(=O)[C@H](O)[C@@H](NC(=O)c4ccccc4)c4ccccc4)C(C)=C1C3(C)C)[C@]1(OC(C)=O)CO[C@@H]1C[C@@H]2O` [paclitaxel]: the solubility in water entry in data set [2] is reported as “about 0.4 mg/L”.

The values above are taken from patent publication US20190110993A1, “Solid Nanoparticle Formulation of Water Insoluble Pharmaceutical Substances with Reduced Ostwald Ripening” (priority 2017, published 2019).
